Tests used:
Assay type in all cases: cell-based
[1] = target: T1, organic cation transporter 1 (OCT1) (Homo sapiens, UniProt O15245); experiment: inhibition of […]-TEA uptake in HEK-OCT1 cells, […], more than […] inhibition; conditions: read-out: % inhibition at 5 μM
T1 construct: gene SLC22A1; NM_003057 overexpressed in HEK293 cells
T1 sequence (O15245 1-554): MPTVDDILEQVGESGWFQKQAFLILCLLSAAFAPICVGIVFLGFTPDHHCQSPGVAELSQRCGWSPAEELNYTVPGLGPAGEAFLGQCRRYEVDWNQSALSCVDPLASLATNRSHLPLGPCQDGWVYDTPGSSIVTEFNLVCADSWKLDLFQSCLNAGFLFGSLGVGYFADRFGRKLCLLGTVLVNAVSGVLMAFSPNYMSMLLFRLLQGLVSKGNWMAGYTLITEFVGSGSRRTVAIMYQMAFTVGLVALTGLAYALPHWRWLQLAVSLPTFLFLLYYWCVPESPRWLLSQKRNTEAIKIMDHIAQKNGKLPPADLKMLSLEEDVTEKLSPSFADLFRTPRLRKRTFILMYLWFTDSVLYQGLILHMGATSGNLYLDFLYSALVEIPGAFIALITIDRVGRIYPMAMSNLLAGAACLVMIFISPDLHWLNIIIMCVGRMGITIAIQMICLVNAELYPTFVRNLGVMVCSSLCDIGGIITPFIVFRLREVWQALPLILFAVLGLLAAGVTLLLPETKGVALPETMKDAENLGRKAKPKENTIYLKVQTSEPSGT

[2] = target: T2, MATE2-K (Homo sapiens, UniProt Q86VL8); experiment: inhibition of […]-TEA uptake in HEK-MATE2-K cells
T2 construct: gene SLC47A2; NM_152908 overexpressed in HEK293 cells
T2 sequence (Q86VL8 1-566 isoform Q86VL8-3): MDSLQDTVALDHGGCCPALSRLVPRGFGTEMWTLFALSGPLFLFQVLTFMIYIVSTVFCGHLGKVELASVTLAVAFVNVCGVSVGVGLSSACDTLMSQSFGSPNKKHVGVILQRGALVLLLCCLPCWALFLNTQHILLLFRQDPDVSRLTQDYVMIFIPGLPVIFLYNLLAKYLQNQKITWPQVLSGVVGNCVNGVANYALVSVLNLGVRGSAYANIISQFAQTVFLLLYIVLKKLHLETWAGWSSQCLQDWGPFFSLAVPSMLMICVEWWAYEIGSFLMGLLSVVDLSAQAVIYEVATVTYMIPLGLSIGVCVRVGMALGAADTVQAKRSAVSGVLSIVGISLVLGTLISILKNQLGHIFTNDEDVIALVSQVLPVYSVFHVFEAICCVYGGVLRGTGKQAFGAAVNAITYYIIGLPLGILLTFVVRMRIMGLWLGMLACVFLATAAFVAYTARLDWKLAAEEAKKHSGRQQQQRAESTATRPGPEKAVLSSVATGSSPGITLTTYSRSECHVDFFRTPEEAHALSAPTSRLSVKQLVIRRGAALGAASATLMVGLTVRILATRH

[3] = target: T3, multidrug and toxin extrusion protein 1 (MATE1) (Homo sapiens, UniProt Q96FL8); experiment: inhibition of […]-TEA uptake in HEK-MATE1 cells
T3 construct: gene SLC47A1; NM_018242 overexpressed in HEK293 cells
T3 sequence (Q96FL8 1-570): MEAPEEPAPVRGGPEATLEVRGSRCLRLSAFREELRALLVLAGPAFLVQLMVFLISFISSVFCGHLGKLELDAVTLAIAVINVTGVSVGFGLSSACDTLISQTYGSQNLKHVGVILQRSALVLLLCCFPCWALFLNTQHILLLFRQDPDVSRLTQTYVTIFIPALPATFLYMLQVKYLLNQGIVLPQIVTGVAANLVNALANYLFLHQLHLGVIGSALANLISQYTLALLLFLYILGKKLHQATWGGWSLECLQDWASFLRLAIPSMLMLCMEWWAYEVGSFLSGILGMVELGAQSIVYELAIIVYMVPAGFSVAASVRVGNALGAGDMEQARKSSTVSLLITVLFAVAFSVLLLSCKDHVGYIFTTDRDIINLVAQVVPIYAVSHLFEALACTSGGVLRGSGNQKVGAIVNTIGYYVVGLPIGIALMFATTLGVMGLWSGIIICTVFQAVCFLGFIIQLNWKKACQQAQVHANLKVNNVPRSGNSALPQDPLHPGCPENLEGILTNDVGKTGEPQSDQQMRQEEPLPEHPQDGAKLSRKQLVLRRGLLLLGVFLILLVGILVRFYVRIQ

[4] = target: T1, organic cation transporter 1 (OCT1); experiment: cis-inhibition of […]-TEA uptake in HEK-OCT1 cells
[5] = target: T4, organic cation transporter 2 (OCT2) (Homo sapiens, UniProt O15244); experiment: cis-stimulation of […]-TEA uptake in HEK-OCT2 cells
T4 construct: gene SLC22A2; NM_003058 overexpressed in HEK293 cells
T4 sequence (O15244 1-555): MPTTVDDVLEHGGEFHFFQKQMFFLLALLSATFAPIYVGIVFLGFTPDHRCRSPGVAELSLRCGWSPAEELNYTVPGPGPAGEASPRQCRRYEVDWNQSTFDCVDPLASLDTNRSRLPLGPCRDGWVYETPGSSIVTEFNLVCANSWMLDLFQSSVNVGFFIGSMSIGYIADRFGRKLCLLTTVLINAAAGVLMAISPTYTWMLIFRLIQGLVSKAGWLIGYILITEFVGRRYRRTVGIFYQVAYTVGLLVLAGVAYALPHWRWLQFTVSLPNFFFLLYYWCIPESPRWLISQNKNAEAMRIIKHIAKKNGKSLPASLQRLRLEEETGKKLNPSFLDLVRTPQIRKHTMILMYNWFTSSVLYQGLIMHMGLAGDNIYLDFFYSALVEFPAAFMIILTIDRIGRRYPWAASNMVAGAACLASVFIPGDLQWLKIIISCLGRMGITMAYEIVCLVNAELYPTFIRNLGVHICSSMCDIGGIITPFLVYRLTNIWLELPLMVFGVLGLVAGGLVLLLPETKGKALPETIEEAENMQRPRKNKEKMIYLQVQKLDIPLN

[6] = target: T1, organic cation transporter 1 (OCT1); experiment: inhibition of TEA and DAPI uptake in HEK-OCT1 cells at […]

SMILES | inhibition at 5 µM [1] [%] | further results
NCCCn1cc(C2=C(c3c[nH]c4ccccc34)C(=O)NC2=O)c2ccccc21 [BIM-III] | > 50 | 
CN1CCCC1CCn1cc(C2=C(c3c[nH]c4ccccc34)C(=O)NC2=O)c2ccccc21 (stereo not shown) [BIM-II] | > 50 | 
Cn1cc(C2=C(c3cn(CCCSC(=N)N)c4ccccc34)C(=O)NC2=O)c2ccccc21 [BIM-IX, Ro 31–8220] |  | IC50 [2]: 0.19 ± 0.07 µM; IC50 [3]: 0.039 ± 0.006 µM; IC50 [4]: 0.18 ± 0.05 µM; EC50 [5]: 0.4 ± 0.01 µM
CN(C)CCCn1cc(C2=C(c3c[nH]c4ccccc34)C(=O)NC2=O)c2ccccc21 [BIM-I] | > 50 | 
COc1ccc(CCN(C)CCCC(C#N)(c2ccc(OC)c(OC)c2)C(C)C)cc1OC (stereo not shown) [verapamil] |  | inhibition of TEA and DAPI uptake in HEK-OCT1 cells at 50 μM [6]: the reference OCT1 inhibitor verapamil similarly inhibited DAPI uptake

More lines, main results first:

inhibition at 5 µM [1] [%] | SMILES | further results
> 50 | Cn1cc(C2=C(c3cn(CCCN)c4ccccc34)C(=O)NC2=O)c2ccccc21 [BIM-VIII] | 
> 50 | CN(C)C[C@@H]1CCn2cc(c3ccccc32)C2=C(C(=O)NC2=O)c2cn(c3ccccc23)CCO1 [LY 333531] | 

— PMC4675551, “Protein Kinase C-Independent Inhibition of Organic Cation Transporter 1 Activity by the Bisindolylmaleimide Ro 31-8220” (PLoS ONE, 2015)
